From patent US10590114B2, “Compounds, compositions, and methods” (Denali Therapeutics Inc., priority 2016, dated 2020)

Legend:
MDR1 (P-glycoprotein) = MDR1 (P-glycoprotein) (Homo sapiens (Human), UniProt P08183); assay: MDR1-MDCK permeability, bidirectional assay; assay type: in vitro ADME; settings: MDR1-MDCK cells, efflux ratio, 1 μM, HBSS pH 7.4
Description: The blood brain barrier (BBB) separates circulating blood from the extracellular fluid of the central nervous system (CNS). The passive membrane permeability (Papp) and MDR1 (P-glycoprotein) substrate efflux potential were determined using the MDR1-MDCK cell line as an in vitro model of the effective permeability of a compound through the BBB. A bidirectional assay was conducted in pre-plated MDR1-MDCK cells using a 12 or 96-well plate in the absence or presence of MDR1 inhibitor (GF120918 or Valspodar). Assays were run in duplicate in transport buffer (HBSS, pH 7.4) for 90 or 120 min (minutes) at 37° C., using a test article concentration of 1 μM. […] Papp (apparent permeability expressed in cm/sec [centimeter/second]) values were calculated according to the following equation:
[formula] where VR is the solution volume in the receiver chamber (apical or basolateral side), Area is the surface area for the insert membrane), Time is incubation time expressed in seconds, CR is the peak area ratio (analyte/IS) in the receiver chamber, CA is the average of the initial and final concentrations in the donor chamber, and CO is the initial peak area ratio in the donor chamber. Papp was determined in both the apical to basolateral (A→B) and basolateral to apical (B→A) directions. […]

[1] = Metabolic stability in human liver microsomes; assay type: in vitro ADME; settings: Table 5; 1 μM compound, 0.5 mg/mL protein, projected human hepatic clearance, well-stirred model
Description: Metabolic stability of compounds was evaluated in human liver microsomes (from Corning or XenoTech, LLC) using a 96-well plate assay format. Compounds were incubated at 37° C. at 1 μM final concentration in the microsomal matrix (0.5 mg/mL total protein) in the presence or absence of NADPH cofactor. An NADPH regenerating system, comprised of NADP, MgCl2, isocitric acid, and isocitrate dehydrogenase, was used in the assay. Enzymatic reactions were conducted for 0, 5, 10, 20, 30, or 60 min before termination by addition of acetonitrile containing tolbutamide and labetalol internal standards (100 ng/mL). After shaking for 10 min, plates were subjected to centrifugation (4000 rpm at 4° C.) for 20 min and supernatants were mixed 1:3 with HPLC grade water. Samples were analyzed by LC-MS/MS using appropriate MRM transitions for each analyte and internal standard (IS). Analyte/IS peak area ratios were used to determine percent compound remaining at each time point. Intrinsic clearance (Clint; expressed as mL·min^−1·mg^−1) was calculated from the first order elimination constant (k, min^−1) of test article decay and the volume of the incubation. These values were scaled to intrinsic organ clearance (Clint) using human specific scaling factors (48.8 mg microsomal protein per g liver; 25.7 g liver per kg body weight). […]

Chain of MDR1 (P-glycoprotein) (P08183 whole entry): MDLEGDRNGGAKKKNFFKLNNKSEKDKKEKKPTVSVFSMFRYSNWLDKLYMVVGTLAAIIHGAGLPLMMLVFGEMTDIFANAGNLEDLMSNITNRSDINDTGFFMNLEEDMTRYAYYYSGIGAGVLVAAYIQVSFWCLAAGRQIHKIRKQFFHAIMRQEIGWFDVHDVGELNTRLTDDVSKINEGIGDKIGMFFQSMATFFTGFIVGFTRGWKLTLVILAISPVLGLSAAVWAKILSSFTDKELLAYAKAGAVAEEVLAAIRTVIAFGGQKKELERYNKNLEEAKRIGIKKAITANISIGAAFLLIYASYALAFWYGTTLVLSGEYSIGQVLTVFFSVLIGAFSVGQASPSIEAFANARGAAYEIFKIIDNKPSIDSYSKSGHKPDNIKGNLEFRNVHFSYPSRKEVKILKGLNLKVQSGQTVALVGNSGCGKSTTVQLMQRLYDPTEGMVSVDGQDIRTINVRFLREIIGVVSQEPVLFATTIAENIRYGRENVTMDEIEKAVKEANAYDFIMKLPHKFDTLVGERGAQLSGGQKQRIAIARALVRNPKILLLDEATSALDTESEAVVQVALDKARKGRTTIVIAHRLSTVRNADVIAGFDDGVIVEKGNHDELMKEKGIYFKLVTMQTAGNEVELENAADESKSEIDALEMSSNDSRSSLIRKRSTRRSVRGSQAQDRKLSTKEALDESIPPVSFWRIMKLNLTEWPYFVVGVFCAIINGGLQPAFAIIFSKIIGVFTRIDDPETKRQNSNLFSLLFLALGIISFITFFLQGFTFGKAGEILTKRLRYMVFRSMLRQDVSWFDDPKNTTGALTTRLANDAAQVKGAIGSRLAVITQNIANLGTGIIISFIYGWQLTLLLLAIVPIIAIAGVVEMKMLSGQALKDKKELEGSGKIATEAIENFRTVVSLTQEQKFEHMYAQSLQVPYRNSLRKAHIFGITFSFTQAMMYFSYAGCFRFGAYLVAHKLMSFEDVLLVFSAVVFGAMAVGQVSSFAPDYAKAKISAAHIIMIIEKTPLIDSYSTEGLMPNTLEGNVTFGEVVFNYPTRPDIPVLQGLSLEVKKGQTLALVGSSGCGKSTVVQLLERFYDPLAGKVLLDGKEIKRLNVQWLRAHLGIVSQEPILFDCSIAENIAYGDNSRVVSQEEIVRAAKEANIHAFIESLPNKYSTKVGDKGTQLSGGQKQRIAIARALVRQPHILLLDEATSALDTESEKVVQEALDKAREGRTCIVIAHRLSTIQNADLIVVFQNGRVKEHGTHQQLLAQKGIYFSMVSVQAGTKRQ

| MDR1 ER (MDR1 (P-glycoprotein)) | Human liver microsomes CLhep [1] [mL/min/kg] | SMILES |
| --- | --- | --- |
| 42 |  | CCNc1nc(Nc2cc(C3(C)CCn4ncnc43)nn2C2CC2)ncc1C(F)(F)F (single isomer, unassigned) [Compound 172] |
|  | 0 | CNc1nc(Nc2cn(C(C)(C)c3ncn(C)n3)nc2C)ncc1C(F)(F)F [Compound 218] |
